# Source: ChEMBL document CHEMBL5537149, “Design, synthesis, and lead optimization of piperazinyl-pyrimidine analogues as potent small molecules targeting the viral capping machinery of Chikungunya virus” (Eur J Med Chem, 2024)
# What was measured:
# [1] = tested on: Chikungunya virus; assay: Antiviral activity against Chikungunya virus infected in African green monkey Vero cells assessed as reduction in viral induced cell death incubated for 5 days by MTS reagent based absorbance method; assay type: functional, organism-based; conditions: 120 h
# [2] = Metabolic stability in human liver microsomes assessed as half-life preincubated for 5 mins followed by NADPH addition and measured upto 60 mins by HPLC-MS/MS analysis; assay type: ADME, Microsome; conditions: time < 65 min
# [3] = Aqueous solubility of compound at pH 7.4 by HPLC analysis; assay type: physicochemical
# [4] = Cytotoxicity against African green monkey Vero cells assessed as reduction in overall metabolic activity incubated for 5 days by MTS reagent based absorbance method; assay type: toxicity, cell-based; conditions: chlorocebus sabaeus, time 5 day
# [5] = Selectivity index, ratio of CC50 for cytotoxicity against African green monkey Vero cells to EC50 for antiviral activity against Chikungunya virus infected in African green monkey Vero cells assessed as reduction in viral induced cell death; assay type: toxicity, cell-based; conditions: read-out: Ratio CC50/EC50
Compound,EC50 [1],half-life [2],solubility [3],CC50 at 120 h [4],selectivity ratio [5]
CCNc1nc(C)cc(NC2CN(C(=O)c3cc(Cl)cc(Cl)c3)C2)n1,8.5 µM,37 min,104 µM,,
CCNc1cc(C)nc(N2CCN(C(=O)c3ccc(Br)cc3)CC2)n1,9.58 µM,> 60 min,116 µM,> 100 µM,> 10
CCNc1cc(C)nc(NC2CCN(C(=O)c3cc(Cl)cc(Cl)c3)CC2)n1,12 µM,30 min,94 µM,25 µM,2.02
CCNc1cc(C)nc(N2CCN(C(=O)c3cccc([N+](=O)[O-])c3)CC2)n1,4.2 µM,57 min,119 µM,> 100 µM,> 24
CCNc1nc(C)cc(N2CCC3(CCN(C(=O)c4cc(Cl)cc(Cl)c4)C3)C2)n1 (stereo not given),11 µM,> 60 min,98 µM,,
CCNc1cc(C)nc(N2CCN(C(=O)c3cc(Cl)cc(Cl)c3)CC2)n1,67 µM,,11 µM,> 100 µM,> 1.5
Nc1nc(N2CCN(C(=O)c3ccc(Cl)cc3)CC2)c2nc[nH]c2n1,> 100 µM,,116 µM,,
Cc1cc(N2CCN(C(=O)c3cccc(Br)c3)CC2)nc(N(C)C)n1,100 µM,,,> 100 µM,> 1
O=C(c1cc(Cl)cc(Cl)c1)N1CCN(c2nc(Cl)nc3[nH]cnc23)CC1,18 µM,> 60 min,66 µM,,
CCNc1cc(C)nc(NC2CN(C(=O)c3cc(Cl)cc(Cl)c3)C2)n1,> 100 µM,,93 µM,,
CCNc1nc(C)cc(N2CCN(C(=O)c3cccc(Cl)c3)CC2)n1,6.6 µM,> 60 min,> 120 µM,248 µM,38
CCNc1nc(N2CCN(C(=O)c3ccc(Br)cc3)CC2)cc(C(F)(F)F)n1,> 100 µM,,33 µM,> 100 µM,
Cc1nc(Cl)c(N)c(N2CCN(C(=O)c3cc(Cl)cc(Cl)c3)CC2)n1,32 µM,,94 µM,,
O=C(c1ccc(Cl)c(Cl)c1)N1CCN(c2nc(C(F)(F)F)nc3[nH]cnc23)CC1,9.5 µM,> 60 min,71 µM,,
CCNc1nc(C)cc(NC2CCN(C(=O)c3cc(Cl)cc(Cl)c3)CC2)n1,14 µM,> 60 min,101 µM,47 µM,3.4
CCNc1nc(C)cc(N2CCC3(CC2)CC(=O)c2ccccc2O3)n1,4.2 µM,> 60 min,98 µM,,
CNc1ccnc(N2CCN(S(=O)(=O)c3ccc(F)cc3)CC2)n1,9.62 µM,48 min,> 120 µM,193 µM,20
CCNc1cc(C)nc(N2CCN(C(=O)C3CCCCC3)CC2)n1,70 µM,,119 µM,147 µM,2.1
CCNc1nc(C)cc(N2CCC(NC(=O)c3cc(Cl)cc(Cl)c3)CC2)n1,> 25 µM,,100 µM,> 100 µM,
CCNc1nc(C)cc(N2CCN(C(=O)c3ccc(F)cc3F)CC2)n1,> 100 µM,,,> 100 µM,> 1
CCNc1ccnc(N2CCN(C(=O)c3ccc(Cl)cc3)CC2)n1,15 µM,> 60 min,> 120 µM,47 µM,3.1

Compound,EC50 [1],half-life [2],solubility [3],CC50 at 120 h [4],selectivity ratio [5]
CCNc1nc(N2CCN(C(=O)c3cc(Cl)cc(Cl)c3)CC2)cc(C(F)(F)F)n1,> 12.5 µM,29 min,2 µM,> 50 µM,
CCNc1nc(C)cc(N2CC3CCC(C2)N3C(=O)c2cc(Cl)cc(Cl)c2)n1,14 µM,> 60 min,111 µM,,
O=C(c1cc(Cl)cc(Cl)c1)N1CCN(c2nc(C(F)(F)F)nc3[nH]cnc23)CC1,77 µM,,73 µM,,
CCNc1cc(C(F)(F)F)nc(N2CCN(C(=O)c3ccc(Cl)c(Cl)c3)CC2)n1,> 6.3 µM,36 min,,> 25 µM,
Cc1cc(N2CCN(S(=O)(=O)c3ccc(F)cc3)CC2)nc(N2CCCC2)n1,25 µM,,> 120 µM,47 µM,1.9
CCNc1cc(C)nc(N2CC(NC(=O)c3cc(Cl)cc(Cl)c3)C2)n1,> 88 µM,,47 µM,,
Cc1nc(N2CCN(C(=O)c3cc(Cl)cc(Cl)c3)CC2)c2nc[nH]c2n1,> 100 µM,,92 µM,,
CCNc1cc(C)nc(N2CC3CN(C(=O)c4cc(Cl)cc(Cl)c4)CC3C2)n1 (stereo not given),23 µM,,108 µM,,
O=C(c1ccc(Cl)c(Cl)c1)N1CCN(c2ncnc3[nH]cnc23)CC1,66 µM,,104 µM,,
CCNc1nc(C)cc(N2CCN(C(=O)c3ccc(C)cc3C)CC2)n1,> 100 µM,,,> 100 µM,> 1
CCNc1nc(C)cc(N2CCN(C(=O)c3ccc(Cl)cc3Cl)CC2)n1,> 100 µM,,> 120 µM,47 µM,< 0.47
O=C(c1ccc(Cl)cc1)N1CCN(c2ncnc3[nH]cnc23)CC1,94 µM,,114 µM,,
CCNc1nc(C)cc(N2CCC3(CCN(C(=O)c4ccc(Cl)cc4)C3)C2)n1 (stereo not given),18 µM,,,45 µM,2.5
Cc1nc(Cl)c(N)c(N2CCN(C(=O)c3ccc(Cl)c(Cl)c3)CC2)n1,9.8 µM,> 60 min,118 µM,,
O=C(c1cc(Cl)cc(Cl)c1)N1CCN(c2ncnc3[nH]cnc23)CC1,32 µM,,112 µM,,
CCNc1cc(C(F)(F)F)nc(N2CCN(C(=O)c3cccc(Br)c3)CC2)n1,41 µM,17 min,0.8 µM,,
CCNc1nc(C)cc(N2CC3CN(C(=O)c4cc(Cl)cc(Cl)c4)CC3C2)n1 (stereo not given),19 µM,> 60 min,109 µM,,
CCNc1cc(C)nc(N2CCC3(CCN(C(=O)c4cc(Cl)cc(Cl)c4)C3)C2)n1 (stereo not given),28 µM,,108 µM,,
CCNc1cc(C)nc(N2CCC(NC(=O)c3cc(Cl)cc(Cl)c3)CC2)n1,> 100 µM,,52 µM,48 µM,< 0.48
Nc1nc(N2CCN(C(=O)c3ccc(Cl)c(Cl)c3)CC2)c2nc[nH]c2n1,> 100 µM,,106 µM,,
CCNc1cc(C)nc(N2CCN(S(=O)(=O)c3ccc(Cl)nc3)CC2)n1,121 µM,,115 µM,97 µM,0.8

Compound,EC50 [1],half-life [2],solubility [3],CC50 at 120 h [4],selectivity ratio [5]
Cc1cc(N(C)C)nc(N2CCN(C(=O)c3cc(Cl)cc(Cl)c3)CC2)n1,> 100 µM,,95 µM,> 100 µM,
CCNc1nc(N2CCN(C(=O)c3ccc(Cl)c(Cl)c3)CC2)cc(C(F)(F)F)n1,> 100 µM,,,> 100 µM,
CCNc1cc(C(F)(F)F)nc(N2CCN(C(=O)c3cc(Cl)cc(Cl)c3)CC2)n1,> 6.3 µM,18 min,3.5 µM,> 25 µM,
CC(C)Nc1ccnc(N2CCN(S(=O)(=O)c3ccc(F)cc3)CC2)n1,10 µM,46 min,100 µM,,
CCNc1nc(C)cc(N2CC3CN(C(=O)c4ccc(Cl)cc4)CC3C2)n1 (stereo not given),3.2 µM,,,72 µM,23
CCNc1cc(C)nc(N2CCN(S(=O)(=O)c3cccs3)CC2)n1,103 µM,,68 µM,180 µM,1.8
CCNc1cc(N2CCN(S(=O)(=O)c3ccc(F)cc3)CC2)ncn1,> 274 µM,,94 µM,,
Cc1nc(Cl)c(N)c(N2CCN(C(=O)c3ccc(Cl)cc3)CC2)n1,> 88 µM,,,> 88 µM,> 1
CCNc1cc(C)nc(N2CC3CN(C(=O)c4ccc(Cl)cc4)CC3C2)n1 (stereo not given),12 µM,,,> 88 µM,> 7.5
CCNc1nc(C)cc(N2CC(NC(=O)c3cc(Cl)cc(Cl)c3)C2)n1,> 100 µM,,81 µM,,
Nc1nc(N2CCN(C(=O)c3cc(Cl)cc(Cl)c3)CC2)c2nc[nH]c2n1,> 100 µM,,47 µM,,
CCNc1cc(C)nc(N2CC3CCC(C2)N3C(=O)c2cc(Cl)cc(Cl)c2)n1,> 100 µM,,97 µM,,
CCNc1cc(C)nc(N2CCC3(CC2)CC(=O)c2ccccc2O3)n1,23 µM,,100 µM,,
O=C(c1ccc(Cl)cc1)N1CCN(c2nc(C(F)(F)F)nc3[nH]cnc23)CC1,26 µM,,36 µM,,
CCNc1cc(C)nc(N2CCC3(CCN(C(=O)c4ccc(Cl)cc4)C3)C2)n1 (stereo not given),32 µM,,,74 µM,2.3
CCNc1cc(C)nc(N2CCCC(NC(=O)c3cc(Cl)cc(Cl)c3)C2)n1 (stereo not given),> 25 µM,,31 µM,49 µM,< 1.95
CCNc1nc(C)cc(N2CC3CCC(C2)N3C(=O)c2ccc(Cl)cc2)n1,17 µM,,,84 µM,5
Cc1nc(N2CCN(C(=O)c3ccc(Cl)cc3)CC2)c2nc[nH]c2n1,97 µM,,84 µM,,
CCNc1cc(C)nc(N2CC3CCC(C2)N3C(=O)c2ccc(Cl)cc2)n1,79 µM,,,> 88 µM,> 1.11
CCNc1cc(C(F)(F)F)nc(N2CCN(C(=O)c3ccc(Br)cc3)CC2)n1,> 6.3 µM,56 min,1.2 µM,> 25 µM,
CCNc1nccc(N2CCN(C(=O)c3ccc(F)cc3)CC2)n1,216 µM,,> 120 µM,> 304 µM,> 1.4
